Experimental data reported in PubChem BioAssay AID328 (DTP/NCI, 2004).
“And” between values parts separate entries of the source, which are not always exact repeats. Equal entries are not always repeated. Toxic doses and inconclusive results are not listed.

Tested on: BDF1 mice, P388 leukemia ip, median survival T/C
Experiment: NCI In Vivo Anticancer Drug Screen. Data for tumor model P388 Leukemia (intraperitoneal) in B6D2F1 (BDF1) mice
Details: endpoint: median survival time, higher = longer survival
Outline: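 T/C = treated-group survival ÷ vehicle-control survival; tumour transplanted into mice before dosing.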

[1] = dose: 50.0 mg/kg/injection, schedule: Q01DX009 (ip), vehicle: saline
[2] = dose: 50.0 mg/kg/injection, schedule: Q04DX003 (ip), vehicle: saline with Tween-80

`CN(N=O)C(=O)NC(N)=O` was tested, and the T/C (dose: 1.5 mg/kg/injection, schedule: Q01DX009 (ip), vehicle: saline) was 99 % of control, the T/C (dose: 2.3 mg/kg/injection, schedule: Q01DX009 (ip), vehicle: saline) was 115 % of control and the T/C (dose: 5.4 mg/kg/injection, schedule: Q01DX009 (ip), vehicle: saline) was 152 % of control. For the same molecule, the T/C (dose: 11.0 mg/kg/injection, schedule: Q01DX009 (ip), vehicle: Klucel (hydroxypropylcellulose) (HPC)) was 161 % of control, the T/C (dose: 12.0 mg/kg/injection, schedule: Q04DX003 (ip), vehicle: Klucel (hydroxypropylcellulose) (HPC)) was 118 % of control and the T/C (dose: 12.5 mg/kg/injection, schedule: Q01DX009 (ip), vehicle: Klucel (hydroxypropylcellulose) (HPC)) was 155 % of control. For the same molecule, the T/C (dose: 12.5 mg/kg/injection, schedule: Q01DX009 (ip), vehicle: saline) was 165 % of control and 174 % of control, the T/C (dose: 16.0 mg/kg/injection, schedule: Q01DX009 (ip), vehicle: Klucel (hydroxypropylcellulose) (HPC)) was 186 % of control and the T/C (dose: 16.5 mg/kg/injection, schedule: Q01DX009 (ip), vehicle: Klucel (hydroxypropylcellulose) (HPC)) was 250 % of control and 161 % of control. The T/C (dose: 18.0 mg/kg/injection, schedule: Q01DX009 (ip), vehicle: saline) was 170 % of control, the T/C (dose: 22.0 mg/kg/injection, schedule: Q04DX003 (ip), vehicle: Klucel (hydroxypropylcellulose) (HPC)) was 122 % of control and the T/C (dose: 25.0 mg/kg/injection, schedule: Q01DX009 (ip), vehicle: Klucel (hydroxypropylcellulose) (HPC)) was 159 % of control and 207 % of control. The T/C (dose: 37.5 mg/kg/injection, schedule: Q01DX009 (ip), vehicle: Klucel (hydroxypropylcellulose) (HPC)) was 100 % of control and 105 % of control, the T/C [1] was 105 % of control and the T/C (dose: 50.0 mg/kg/injection, schedule: Q04DX003 (ip), vehicle: Klucel (hydroxypropylcellulose) (HPC)) was 200 % of control. The T/C (dose: 75.0 mg/kg/injection, schedule: Q04DX003 (ip), vehicle: Klucel (hydroxypropylcellulose) (HPC)) was 122 % of control.

`NNc1ccnc2[nH]ncc12` was tested, and the T/C (dose: 6.25 mg/kg/injection, schedule: Q01DX006 (ip), vehicle: saline with Tween-80) was 107 % of control, the T/C (dose: 12.5 mg/kg/injection, schedule: Q01DX006 (ip), vehicle: saline with Tween-80) was 104 % of control and the T/C (dose: 25.0 mg/kg/injection, schedule: Q01DX006 (ip), vehicle: saline with Tween-80) was 104 % of control.

With `O=C1CC(N2C(=O)c3ccccc3C2=O)C(=O)N1` (configuration not stated) the T/C (dose: 25.0 mg/kg/injection, schedule: Q04DX003 (ip), vehicle: saline with Tween-80) was 101 % of control, the T/C [2] was 103 % of control and the T/C (dose: 100.0 mg/kg/injection, schedule: Q04DX003 (ip), vehicle: saline with Tween-80) was 103 % of control. For the same molecule, the T/C (dose: 200.0 mg/kg/injection, schedule: Q04DX003 (ip), vehicle: saline with Tween-80) was 99 % of control.

For `c1ccc2c(c1)OP(OP1Oc3ccccc3O1)O2`, the T/C (dose: 25.0 mg/kg/injection, schedule: Q01DX009 (ip), vehicle: saline) was 95 % of control, the T/C [1] was 113 % of control and the T/C (dose: 150.0 mg/kg/injection, schedule: Q04DX003 (ip), vehicle: saline) was 113 % of control.

In the case of `CCCCCCCCCCCCCC(=O)O[C@@H]1[C@@H](C)[C@@]2(O)[C@@H](C=C(CO)C[C@]3(O)C(=O)C(C)=C[C@@H]23)[C@@H]2C(C)(C)[C@]12OC(C)=O`, the T/C (dose: 0.03 mg/kg/injection, schedule: Q01DX009 (ip), vehicle: Klucel (hydroxypropylcellulose) (HPC)) is reported as 110 % of control, the T/C (dose: 0.03 mg/kg/injection, schedule: Q01DX009 (ip), vehicle: saline + alcohol) is reported as 108 % of control and the T/C (dose: 0.06 mg/kg/injection, schedule: Q01DX009 (ip), vehicle: Klucel (hydroxypropylcellulose) (HPC)) is reported as 100 % of control. The T/C (dose: 0.06 mg/kg/injection, schedule: Q01DX009 (ip), vehicle: saline + alcohol) was 110 % of control, the T/C (dose: 0.12 mg/kg/injection, schedule: Q01DX009 (ip), vehicle: Klucel (hydroxypropylcellulose) (HPC)) was 110 % of control and the T/C (dose: 0.12 mg/kg/injection, schedule: Q01DX009 (ip), vehicle: saline + alcohol) was 117 % of control. For the same molecule, the T/C (dose: 0.25 mg/kg/injection, schedule: Q01DX009 (ip), vehicle: Klucel (hydroxypropylcellulose) (HPC)) was 92 % of control, the T/C (dose: 0.25 mg/kg/injection, schedule: Q01DX009 (ip), vehicle: saline + alcohol) was 116 % of control and the T/C (dose: 0.5 mg/kg/injection, schedule: Q01DX009 (ip), vehicle: Klucel (hydroxypropylcellulose) (HPC)) was 100 % of control. The T/C (dose: 0.5 mg/kg/injection, schedule: Q01DX009 (ip), vehicle: saline + alcohol) was 104 % of control, the T/C (dose: 1.0 mg/kg/injection, schedule: Q01DX009 (ip), vehicle: Klucel (hydroxypropylcellulose) (HPC)) was 108 % of control and the T/C (dose: 3.1 micrograms/kg/injection, schedule: Q01DX009 (ip), vehicle: gum acacia) was 97 % of control and 108 % of control. For the same molecule, the T/C (dose: 3.1 micrograms/kg/injection, schedule: Q01DX009 (ip), vehicle: saline with Tween-80) was 105 % of control, the T/C (dose: 6.2 micrograms/kg/injection, schedule: Q01DX009 (ip), vehicle: gum acacia) was 94 % of control and the T/C (dose: 6.2 micrograms/kg/injection, schedule: Q01DX009 (ip), vehicle: saline with Tween-80) was 109 % of control. The T/C (dose: 12.5 micrograms/kg/injection, schedule: Q01DX009 (ip), vehicle: gum acacia) was 106 % of control, the T/C (dose: 12.5 micrograms/kg/injection, schedule: Q01DX009 (ip), vehicle: saline with Tween-80) was 104 % of control and the T/C (dose: 25.0 micrograms/kg/injection, schedule: Q01DX009 (ip), vehicle: gum acacia) was 103 % of control and 118 % of control. For the same molecule, the T/C (dose: 25.0 micrograms/kg/injection, schedule: Q01DX009 (ip), vehicle: saline with Tween-80) was 109 % of control, the T/C (dose: 50.0 micrograms/kg/injection, schedule: Q01DX009 (ip), vehicle: gum acacia) was 97 % of control and 108 % of control and 116 % of control and the T/C (dose: 50.0 micrograms/kg/injection, schedule: Q01DX009 (ip), vehicle: saline with Tween-80) was 114 % of control. For the same molecule, the T/C (dose: 100.0 micrograms/kg/injection, schedule: Q01DX009 (ip), vehicle: gum acacia) was 106 % of control and 108 % of control, the T/C (dose: 100.0 micrograms/kg/injection, schedule: Q01DX009 (ip), vehicle: saline with Tween-80) was 113 % of control and the T/C (dose: 200.0 micrograms/kg/injection, schedule: Q01DX009 (ip), vehicle: gum acacia) was 101 % of control and 103 % of control and 113 % of control. For the same molecule, the T/C (dose: 200.0 micrograms/kg/injection, schedule: Q01DX009 (ip), vehicle: saline with Tween-80) was 97 % of control, the T/C (dose: 400.0 micrograms/kg/injection, schedule: Q01DX009 (ip), vehicle: gum acacia) was 103 % of control and the T/C (dose: 400.0 micrograms/kg/injection, schedule: Q01DX009 (ip), vehicle: saline with Tween-80) was 103 % of control. For the same molecule, the T/C (dose: 800.0 micrograms/kg/injection, schedule: Q01DX009 (ip), vehicle: gum acacia) was 100 % of control and 106 % of control.

With `COC(=O)OCCOC(=O)OC` the T/C (dose: 100.0 mg/kg/injection, schedule: Q01DX009 (ip), vehicle: saline) was 100 % of control, the T/C (dose: 100.0 mg/kg/injection, schedule: Q04DX003 (ip), vehicle: saline) was 95 % of control and the T/C (dose: 200.0 mg/kg/injection, schedule: Q01DX009 (ip), vehicle: saline) was 110 % of control. For the same molecule, the T/C (dose: 200.0 mg/kg/injection, schedule: Q04DX003 (ip), vehicle: saline) was 100 % of control, the T/C (dose: 400.0 mg/kg/injection, schedule: Q01DX009 (ip), vehicle: saline) was 100 % of control and the T/C (dose: 400.0 mg/kg/injection, schedule: Q04DX003 (ip), vehicle: saline) was 100 % of control.

In the case of `CCCCC(=O)c1ccc(F)cc1`, the T/C (dose: 100.0 mg/kg/injection, schedule: Q01DX009 (ip), vehicle: Klucel (hydroxypropylcellulose) (HPC)) is reported as 95 % of control, the T/C (dose: 100.0 mg/kg/injection, schedule: Q04DX003 (ip), vehicle: Klucel (hydroxypropylcellulose) (HPC)) is reported as 91 % of control and the T/C (dose: 200.0 mg/kg/injection, schedule: Q01DX009 (ip), vehicle: Klucel (hydroxypropylcellulose) (HPC)) is reported as 104 % of control. For the same molecule, the T/C (dose: 200.0 mg/kg/injection, schedule: Q04DX003 (ip), vehicle: Klucel (hydroxypropylcellulose) (HPC)) was 104 % of control, the T/C (dose: 400.0 mg/kg/injection, schedule: Q01DX009 (ip), vehicle: Klucel (hydroxypropylcellulose) (HPC)) was 109 % of control and the T/C (dose: 400.0 mg/kg/injection, schedule: Q04DX003 (ip), vehicle: Klucel (hydroxypropylcellulose) (HPC)) was 91 % of control.

`CS(=O)(=O)OCCCCCCCCCOS(C)(=O)=O` was tested, and the T/C (dose: 33.0 mg/kg/injection, schedule: Q04DX003 (ip), vehicle: saline with Tween-80) was 104 % of control and the T/C [2] was 113 % of control.

With `Nc1nc(SN=Nc2ccc(S(N)(=O)=O)cc2)c2[nH]cnc2n1` the T/C (dose: 3.75 mg/kg/injection, schedule: Q01DX009 (ip), vehicle: saline with Tween-80) was 120 % of control, the T/C (dose: 7.5 mg/kg/injection, schedule: Q01DX009 (ip), vehicle: saline with Tween-80) was 104 % of control and the T/C (dose: 15.0 mg/kg/injection, schedule: Q01DX009 (ip), vehicle: saline with Tween-80) was 91 % of control.

For `COc1ccc(CNCCc2ccc(O)c(OC)c2)cc1O`, the T/C (dose: 50.0 mg/kg/injection, schedule: Q01DX009 (ip), vehicle: saline with Tween-80) was 100 % of control, the T/C (dose: 100.0 mg/kg/injection, schedule: Q01DX009 (ip), vehicle: saline with Tween-80) was 102 % of control and the T/C (dose: 200.0 mg/kg/injection, schedule: Q01DX009 (ip), vehicle: saline with Tween-80) was 107 % of control.

`N#CC(O)Cc1ccccc1` (configuration not stated) was tested, and the T/C (dose: 2.5 mg/kg/injection, schedule: Q01DX009 (ip), vehicle: other) was 100 % of control, the T/C (dose: 5.0 mg/kg/injection, schedule: Q01DX009 (ip), vehicle: other) was 100 % of control and the T/C (dose: 10.0 mg/kg/injection, schedule: Q01DX009 (ip), vehicle: other) was 100 % of control.
